59 molecules from the METLIN SMRT retention time set (Domingo-Almenara et al. 2019) can be followed below.

This data set in a line: gradient 5% acetonitrile 3 min, to 50% in 2 min, to 85% in 15 min, held 3 min, 100 µL/min. The conditions noted are these: column: Zorbax Extend-C18 2.1 x 50 mm; eluents: water / acetonitrile, 0.1% formic acid. An outline of the steps: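 Over 3 months, pure standards in mixtures of ~100 molecules were run by HPLC coupled to a quadrupole time-of-flight mass spectrometer in positive and negative ionization mode. The column was a Zorbax Extend-C18 (2.1 × 50 mm, 1.8 μm) at 100 μL/min, eluted with water and acetonitrile each holding 0.1% formic acid, with 40 μL dead and 900 μL dwell volumes. Retention time was determined from adduct peaks chosen by software and checked manually.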
As to `COc1ccc(Nc2c(C(=O)N3CCC(C)CC3)cnc3nc(C)ccc23)cc1OC`, the RP-LC retention time stood at 629 s.
As to `Cc1nnc2c(=O)n(CC(=O)NCc3cc(F)cc(F)c3)c3cccnc3n12`, the RP-LC retention time was 686 s.
Molecule `CCOC(=O)CNC(=O)N1CCc2c(c(C(=O)N3CCCCC3)nn2C)C1` gave an RP-LC retention time of 643 s.
To `COCCNC(=O)c1c(C)sc2ccn(Cc3ccc(F)cc3)c(=O)c12` belongs 749 s.
To `CC(C)Oc1ccccc1CN1CC(c2nc(-c3ccncc3)nn2C)C1` belongs 590 s; to `CC1CCN(c2ncc3c(n2)CCC(C(=O)Nc2ccc(N4CCOCC4)cc2)C3)CC1` (centres undefined), 721 s; to `O=c1ccc(S(=O)(=O)N2CCOCC2)cn1Cc1cccc(F)c1`, 755 s.
For `O=C(Cn1c(Cc2ccccc2)nc2ccccc21)N1CCCCCC1`, the RP-LC retention time was 670 s.
With `COc1ccccc1CNC(=O)c1nnc(-c2ccc(S(=O)(=O)N3CCCCC3)cc2)o1`, the RP-LC retention time turned out to be 911 s.
The value for `Cc1cc(N2CCCC2)nc(N2CCN(S(=O)(=O)c3ccc(Br)cc3)CC2)n1` was 820 s; that for `COc1ccc(C(C)NC(=O)Cc2cn(C)c3ncccc23)cc1OC` (centres undefined) was 640 s.
In turn, `CCC(C)NC(=O)N1CCN(Cc2nc3cc(C(C)(C)C)ccc3o2)CC1` (centres undefined) came in with an RP-LC retention time of 758 s.
To `CC1CN(CC(=O)NCc2ccc3c(c2)OCO3)c2ccccc2S1` (centres undefined) belongs 967 s; to `CN(CCNC(=O)C1c2ccccc2C(=O)N(C)C1c1cccs1)C1CCCCC1` (centres undefined), 706 s.
To `COc1ccc(F)cc1S(=O)(=O)N1C[C@@H]2C[C@H](NC(=O)c3cccs3)[C@H]1C2` belongs 834 s; to `Cc1ccc(Cn2ccn3nc(-c4ccccc4)c(CO)c3c2=O)cc1`, 964 s; to `Oc1ccc2c3c1O[C@H]1c4[nH]c5ccccc5c4C[C@@]4(O)C(C2)N(CC2CC2)CC[C@]314`, 717 s.
Regarding `O=C(CSc1cccc2cccnc12)NCCc1ccc(Cl)cc1`, the RP-LC retention time turned out to be 786 s.
Molecule `Cc1ccc2c(=O)c(C(=O)N3CCCC3)cn(CC(=O)Nc3ccccc3Cl)c2n1` came in with an RP-LC retention time of 704 s.
In turn, `CC(C)n1c(=O)sc2cc(S(=O)(=O)N3CCC(C(=O)Nc4cccc(C#N)c4)CC3)ccc21` displayed an RP-LC retention time of 697 s.
The value for `CNC(=O)[C@@H]1CN(C(=O)c2ccn(C)n2)C[C@H]1COC` was 535 s.
`CC(C)c1ccc(NC(=O)Cn2nc3c4sc(N(C)C)nc4ncn3c2=O)cc1` came in with an RP-LC retention time of 782 s.
In turn, `COCCN1CCn2cc(S(=O)(=O)Nc3cc(C)cc(C)c3)cc2C1=O` had an RP-LC retention time of 745 s.
The molecule `COc1ccc(OC)c(S(=O)(=O)N2CC(c3nc(-c4ccsc4)nn3C)C2)c1` yielded an RP-LC retention time of 816 s.
The value for `Cc1nc(CCNS(=O)(=O)c2cccc(C(F)(F)F)c2)no1` was 807 s.
In turn, `COc1ccc(C(=O)N2CCN(c3ccc(-c4nc(C)cs4)cn3)CC2)cc1OC` registered an RP-LC retention time of 736 s.
Regarding `COc1ccccc1NC(=O)N1CCC2(CC1)N=C(c1cccc(F)c1)C(=O)N2`, the RP-LC retention time stood at 840 s.
To `CC(N)c1cccc(Cl)c1Cl` (centres undefined) belongs 636 s; to `Cc1nn(-c2ccc(-c3ccccc3)nn2)c(C)c1S(=O)(=O)N1CCN(c2ccccn2)CC1`, 776 s; to `CCCCCn1c(=O)c2ccccc2n(Cc2nc(-c3ccc(OC)cc3)no2)c1=O`, 1210 s.
`CCOC(=O)CNC(=O)NCc1cccn1Cc1cccc(C)c1` returned an RP-LC retention time of 834 s.
To `CCOC(=O)c1ccc2[nH]c(-c3ccc(S(=O)(=O)F)cc3)cc(=O)c2c1` belongs 858 s; to `Cc1cc(C)cc(C(=O)NCc2[nH]nc3ccccc23)c1`, 814 s.
`Cc1nc(-c2noc(-c3ccc(F)cc3)n2)cn1CC(=O)Nc1ccc2c(c1)CCC2` returned an RP-LC retention time of 966 s.
For `Cc1cc2nc(NC3=NCN(CC4CCCO4)CN3)nc(C)c2cc1C` (centres undefined), the RP-LC retention time turned out to be 683 s.
The value for `CC(C)c1noc(-c2cc(=O)n(CC(=O)Nc3ccccc3)c3ccccc23)n1` was 972 s; that for `Cc1cc(C)c2nc(-c3ccc4ccccc4c3)cc(C(=O)O)c2c1` was 1310 s; that for `Cc1cc(-c2ccc(S(=O)(=O)N3CCC(C(=O)N4CCCC4)CC3)o2)n[nH]1` was 679 s.
`CC(NC(=O)c1nnc(-c2ccc(S(=O)(=O)N(C)C)cc2)o1)c1ccccn1` (centres undefined) returned an RP-LC retention time of 683 s.
In turn, `CC(C)n1nc(CNC(=O)Cc2ccsc2)c2ccccc21` registered an RP-LC retention time of 850 s.
`CCN1C(=O)c2cccnc2Sc2cc(C(=O)N3CCCCC3)ccc21` came in with an RP-LC retention time of 730 s.
`CO[C@H]1CN(C2CCN(S(=O)(=O)c3cccc4cccnc34)CC2)[C@H]1c1cccnc1` registered an RP-LC retention time of 605 s.
As for `O=C(NCCn1c(-c2ccc(F)cc2)nc2cccnc21)Nc1ccc2c(c1)OCCO2`, the RP-LC retention time came to 682 s.
In the case of `COc1ccc(NC(=O)c2cc3c(=O)n(CC(C)C)c4ccccc4n3n2)cc1OC`, the RP-LC retention time amounted to 910 s.
As for `Cc1cc(N2CCCC2)nc(N2CCN(C(=O)c3ccc(Br)cc3)CC2)n1`, the RP-LC retention time was 713 s.
As for `NS(=O)(=O)c1ccc(CCNS(=O)(=O)c2ccccc2-c2nc(-c3ccccc3)no2)cc1`, the RP-LC retention time came out at 886 s.
Molecule `CCCCCCCCCOc1ccc2[nH]cc(CCN)c2c1` came in with an RP-LC retention time of 996 s.
`Cc1cccc(N2CCN(C(=O)c3cc(C)n4nccc4n3)CC2)c1` gave an RP-LC retention time of 829 s.
`CCN1C=C(C(=O)OCc2cccc(F)c2)C(C)=NS1(=O)=O` displayed an RP-LC retention time of 968 s.
The molecule `CN(C)S(=O)(=O)c1ccc(-c2nnc(C(=O)NC3CCCCC3)o2)cc1` yielded an RP-LC retention time of 886 s.
The value for `Cc1cc(NC(=O)CSc2cc(-c3ccccc3)ncn2)no1` was 780 s; that for `COc1ccc(CN2CCC(NC(=O)CCc3c(C)noc3C)C2)cn1` (centres undefined) was 571 s; that for `CCc1cccc(NC(=O)N2CCC(c3cc(N)on3)CC2)c1` was 751 s.
To `CCCNc1cc(N2CCC(CCC(=O)N3CCN(c4ccccn4)CC3)CC2)ncn1` belongs 570 s; to `Cc1nn(C)c(C)c1C(C)NC(=O)C1CCN(c2cnn(Cc3ccccc3)c(=O)c2)CC1` (centres undefined), 650 s.
`Cc1cc(SCC(=O)N2CCCc3ccccc32)nc(=O)[nH]1` returned an RP-LC retention time of 677 s.
Consider `O=C(CN1CCN(Cc2ccccc2F)C1=O)NCc1ccc(N2CCOCC2)cc1`, for which the RP-LC retention time worked out at 699 s.
In turn, `CN(C)c1ccc(O)c2c1C[C@H]1C[C@H]3[C@H](N(C)C)C(=O)C(C(N)=O)=C(O)[C@@]3(O)C(=O)C1=C2O` returned an RP-LC retention time of 596 s.
`CC1Cc2ccccc2N1S(=O)(=O)c1cc2c3c(c1)CCC(=O)N3CCC2` (centres undefined) showed an RP-LC retention time of 961 s.
